# In patent publication US20260060970A1, “Use of a Therapeutic Agent with Phosphodiesterase-7 Inhibitory Activity for the Treatment and Prevention of Diseases Associated with Chronic Fatigue, Exhaustion and/or Exertional Intolerance” (MITODICURE GMBH, priority 2022, published 2026):
# Assays:
# [1] = target: T1, PDE7B (Homo sapiens, UniProt Q9NP56); experiment: PDE7 enzymatic assay, IC50 determination (PDE7B); format: biochemical; conditions: human recombinant enzyme, 0.1 μM FAM-cAMP, 30 min 25° C.
# T1 construct: host or cells: Sf9 insect cells
# Description: (§1) The ability of compounds to inhibit PDE7 may be measured using the following assay protocal: Assay methods for IC50 determination of PDE7 and variants involve as enzyme source human recombinant insect Sf9 cells. The substrate is 0.1 μM FAM-cAMP and the vehicle is 1.0% DMSO or 1.0% PEG 400. Pre-incubation time and temperature are 15 minutes at 25° C. and incubation time and temperature are 30 minutes at 25° C. The incubation buffer consists of 10 mM Tris-HCl, PH 7.2, 10 mM MgCl2, 0.05% NaN3, and 0.1% phosphate-free BSA. The quantitation method used is spectrofluorimetric quantitation of Fluorescein-AMP-IMAP. IBMX reference standards are run as an integral part of each assay to ensure the validity of the results obtained. The IC50 is the concentration of the compound (inhibitor) tested in the assay which makes it possible to reduce the enzymatic activity of PDE7 by 50%. IC50 values are finally determined by a non-linear, least squares regression analysis using MathIQ™ (ID Business Solutions Ltd., UK).
# (§2) The compounds to be tested as PDE7 inhibitors were initially dissolved in vehicle at a concentration of 30 mM. These solutions were tested as the highest test concentration and then further diluted in cascade always in a ratio of 1:6 to obtain solutions with the desired lower test concentrations. Each assay was carried out in duplicate.
# [2] = target: T2, PDE7A (Homo sapiens, UniProt Q13946); experiment: PDE7 enzymatic assay, IC50 determination (PDE7A); format: biochemical; conditions: human recombinant enzyme, 0.1 μM FAM-cAMP, 30 min 25° C.
# T2 construct: host or cells: Sf9 insect cells
# Description: as §1, §2
# [3] = test system: isolated rat soleus muscle; experiment: Ex vivo model: residual contractile force of isolated rat soleus muscle in high KCl buffer (Na+/K+ATPase activation); conditions: for Mean residual contractile force in % (SEM in %): after 30 min in KCl 12.5 mM buffer
# Source text: Muscular fatigue and loss of force (e.g., loss of handgrip strength) is a hallmark in ME/CFS patients. A main target of PDE7 inhibition is the skeletal muscle whose energetic function is deeply disturbed in ME/CFS and which is presumed to be very important in the symptomatology of ME/CFS. Insufficient stimulation of the Na^+/K^+ATPase plays a key role in the development of the disturbances by a rise in intramuscular sodium that finally leads to calcium overload. The latter causes a deep functional energetic disturbance or damage. The isolated rat muscle either soleus muscle or extensor digitorum longus muscle is a well-characterized and well-validated model for the study of the function of the Na^+/K^+ATPase. The isolated rat soleus muscle is particularly appropriate for experiments ex vivo as it is very thin so that there is no need for blood supply. […] In the experimental setting used, the high KCl concentration buffer causes partial depolarization that leads to sodium influx to disturb and to decrease excitability to subsequently reduce muscle force. Stimulation of Na^+/K^+ATPase lowers intracellular sodium levels towards physiological levels to restore excitability and muscular force during electrical stimulation.
# The decline in force in the soleus muscle can be considered as muscular fatigue and related to the loss of hand grip muscular strength in ME/CFS patients. As the phosphodiesterase isoenzyme subtype 7 (PDE7) is the predominant PDE isoenzyme in skeletal muscle to raise cAMP this ex vivo model is suited for the testing the effect of PDE7 inhibitors and in particular their effect on force generation disturbed by mechanisms that worsen excitability or the energetic situation. […] High level activity of Na^+/K^+ATPase stimulated by cAMP can counteract the decrease in excitability and the loss of force.
# Muscle preparation and incubation: Female Sprague Dawley rats of 5 weeks of age were used. After isoflurane anesthesia and cervical dislocation the intact soleus muscles of the animals were dissected. The soleus muscles were mounted at resting length in a vertical position between two field stimulation electrodes (thick copper wires) in organ bathes containing 15 mL incubation medium. The lower end of the muscle was fixed to a clip fixed to the bottom of the organ bath, the upper end of the muscle was fixed to an isometric force transducer (Force transducer K300 Hugo Sachs) by a clip allowing measurement of isometric contractions, and a tension of 100 mN was applied.
# Force measurement: The experimental set-up used for force measurements allowed for the simultaneous recordings from 6 muscles in separate incubation chambers in parallel. Force was recorded and stored with a Notocord HEM data acquisition system. […] Incubation took place at 30° C. […] Electrical stimulation protocol: After an equilibration period of 30 min muscles were field-stimulated to deliver optimal force at 83 Hz, 2-3 ms pulses, 12 V (biphasic), 0.2-0.5 s train width with a Hugo Sachs stimulator (HSE). […] Stimulations were then performed every 5 min for 30 min. […] Two control groups were included.
# The residual contractile force after 30 min in high KCl buffer was chosen as the efficacy parameter and related to the last value of stimulated force in the initial buffer in the same organ bath. The percentages of residual force were compared between the different groups and used for statistical calculation.
# [4] = test system: PDE7; experiment: PDE7 enzymatic assay, IC50 determination (PDE7); format: biochemical; conditions: human recombinant enzyme, 0.1 μM FAM-cAMP, 30 min 25° C.
# Description: as §1, §2
# [5] = test system: PDE7 enzyme; conditions: cited from earlier work
# T2 sequence (Q13946 whole entry): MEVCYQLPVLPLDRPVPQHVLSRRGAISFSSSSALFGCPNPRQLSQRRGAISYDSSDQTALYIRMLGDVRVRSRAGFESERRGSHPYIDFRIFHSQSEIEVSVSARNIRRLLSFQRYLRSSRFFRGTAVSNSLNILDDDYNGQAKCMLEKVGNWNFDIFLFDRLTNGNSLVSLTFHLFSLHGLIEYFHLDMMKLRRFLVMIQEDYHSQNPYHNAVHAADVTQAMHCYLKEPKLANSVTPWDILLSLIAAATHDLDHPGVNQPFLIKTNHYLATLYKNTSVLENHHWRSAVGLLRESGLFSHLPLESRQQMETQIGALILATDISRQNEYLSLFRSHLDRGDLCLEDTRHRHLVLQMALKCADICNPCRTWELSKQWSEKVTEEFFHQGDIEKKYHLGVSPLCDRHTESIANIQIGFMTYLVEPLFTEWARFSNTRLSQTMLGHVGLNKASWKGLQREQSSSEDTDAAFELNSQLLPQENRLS
# T1 sequence (Q9NP56 whole entry): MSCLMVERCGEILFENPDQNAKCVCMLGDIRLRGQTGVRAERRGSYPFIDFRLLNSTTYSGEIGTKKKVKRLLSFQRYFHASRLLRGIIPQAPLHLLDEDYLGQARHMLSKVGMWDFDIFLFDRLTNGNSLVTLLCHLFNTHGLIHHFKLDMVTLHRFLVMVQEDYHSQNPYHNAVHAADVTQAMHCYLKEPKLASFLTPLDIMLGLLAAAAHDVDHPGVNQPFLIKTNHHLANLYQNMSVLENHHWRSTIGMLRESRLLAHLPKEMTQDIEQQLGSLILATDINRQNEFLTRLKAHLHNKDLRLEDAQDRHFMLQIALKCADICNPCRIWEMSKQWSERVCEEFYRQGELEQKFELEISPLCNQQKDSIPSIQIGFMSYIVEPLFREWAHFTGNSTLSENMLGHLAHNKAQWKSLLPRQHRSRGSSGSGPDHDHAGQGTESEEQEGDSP
SMILES,IC50 [2] [nM],IC50 [4] [nM],also measured
COc1ccc(Cn2c(=O)c3cc(OC(CF)CF)c(F)cc3n(C3CCN(C=O)CC3)c2=O)cc1OC [Formula No. 55E],14.2,,IC50 [1]: 83 nM; Mean residual contractile force in % (SEM in %) ([3]; 29 nM in the presence of salbutamol 1 μM): 69.3 (4.1); n = 5; p < 0.01%
Cc1nn(C2CCCCC2)c2sc(C(=O)NCC(C)(C)CN3C(=O)CNC3=O)cc12 [Formula No. 6G],,20,
Cc1ccc([N+](=O)[O-])cc1S(=O)(=O)N(C)C [Formula No. 8A],,,Mean residual contractile force in % (SEM in %) ([3]; 4.5 μM in the presence of salbutamol 1 μM): 80.2 (6.0); n = 15; p < 0.001%
COc1ccc(C2CNC(=O)C2)cc1OC1CCCC1 (stereo not shown) [rolipram],,,inhibition of PDE7 by rolipram [5]: not inhibited
"CC(C)Cn1c(=O)n(C)c(=O)c2[nH]cnc21 [IBMX, 3-isobutyl-1-methylxanthine, reference compound]",10000,,
Cc1nn(C2CCCCC2)c2sc(C(=O)Nc3ccc(C(=O)N(C)C)cc3)cc12 [Formula No. 6C],,14,
CNC(=O)c1ccc(NC(=O)c2cc3c(C)nn(C4CCCCC4)c3s2)cn1 [Formula No. 6B],11.1,33,IC50 [1]: 53 nM; Mean residual contractile force in % (SEM in %) ([3]; 0.99 μM in the presence of salbutamol 1 μM): 50.7 (3.6); n = 6; p < 0.05%
O=CN1CCC(n2c(=O)n(Cc3ccc(-c4cccs4)cc3)c(=O)c3cc(OC(CF)CF)c(F)cc32)CC1 [Formula No. 55J],,< 100,
O=C1Nc2c(Cl)ccc(O[C@H]3C[C@H](C(=O)O)C3)c2C2(CCCCC2)N1 [Formula No. 44A],26,,IC50 [1]: 72 nM; Mean residual contractile force in % (SEM in %) ([3]; 26 nM in the presence of salbutamol 1 μM): 63.5 (7.8); n = 6; p < 0.01%
O=C1Nc2c(Cl)ccc(Oc3ccccc3-c3nnn[nH]3)c2C2(CCCCC2)N1 [Formula No. 35A],0.3,,IC50 [1]: 0.9 nM
"OCCN(CCO)c1nc(N2CCCCC2)c2nc(N(CCO)CCO)nc(N3CCCCC3)c2n1 [Dipyridamole, 2,2′,2″,2′″-[[4,8-Di(piperidin-1-yl)pyrimido[5,4-d]pyrimidine-2,6-diyl]dinitrilo]tetraethanol, reference compound]",42000,,"Mean residual contractile force in % (SEM in %) ([3]; 30 μM in the presence of salbutamol 1 μM): 46.3 (6.3); n = 15; p < 0.01%; effect on residual contractile force compared with salbutamol alone ([3]; test compound plus salbutamol 1 μM, KCl 12.5 mM buffer): numerically stronger effect than salbutamol alone"
Cc1nn(C2CCOCC2)c2sc(C(=O)N[C@H]3CC[C@H](N4CCOCC4)CC3)cc12 [Formula No. 6E],,24,
Cc1nn(C2CCCCC2)c2sc(C(=O)N[C@H](C)CN3C(=O)CNC3=O)cc12 [Formula No. 6H],,34,
CC(=O)N1CCN([C@H]2CC[C@H](NC(=O)c3cc4c(C)nn(C5CCOCC5)c4s3)CC2)CC1 [Formula No. 6F],,19,
"S=c1[nH]c2ccccc2c(=S)n1-c1ccccc1 [Formula No. 42A, 3-phenyl-2,4(1H,3H)-quinazolinedithione]",,,Mean residual contractile force in % (SEM in %) ([3]; 3.5 μM in the presence of salbutamol 1 μM): 48.5 (8.6); n = 7; p < 0.05%
Cc1nn(C2CCCCC2)c2sc(C(=O)Nc3ccc(N4CCNC4=O)nc3)cc12 [Formula No. 6A],,20,
"CC(C)(C)NCC(O)c1ccc(O)c(CO)c1 (stereo not shown) [Salbutamol, reference compound]",,,Mean residual contractile force in % (SEM in %) ([3]; salbutamol alone 1 μM): 26.5 (3.9); n = 30%
CC(=O)Nc1ccc(NC(=O)c2cc3c(C)nn(C4CCCCC4)c3s2)cc1 [Formula No. 6D],,37,
